Data published in patent US20230183188A1, “ENPP1 MODULATORS AND USES THEREOF” (Vir Biotechnology, Inc., priority 2020, published 2023).

Biological target: T1, recombinant protein containing the human ENPP1 enzymatic domain (Homo sapiens, UniProt P22413)
T1 construct: recombinant protein containing the human ENPP1 enzymatic domain; purchased R&D Systems 6136-EN-010
T1 sequence (P22413 191-591 limits assumed): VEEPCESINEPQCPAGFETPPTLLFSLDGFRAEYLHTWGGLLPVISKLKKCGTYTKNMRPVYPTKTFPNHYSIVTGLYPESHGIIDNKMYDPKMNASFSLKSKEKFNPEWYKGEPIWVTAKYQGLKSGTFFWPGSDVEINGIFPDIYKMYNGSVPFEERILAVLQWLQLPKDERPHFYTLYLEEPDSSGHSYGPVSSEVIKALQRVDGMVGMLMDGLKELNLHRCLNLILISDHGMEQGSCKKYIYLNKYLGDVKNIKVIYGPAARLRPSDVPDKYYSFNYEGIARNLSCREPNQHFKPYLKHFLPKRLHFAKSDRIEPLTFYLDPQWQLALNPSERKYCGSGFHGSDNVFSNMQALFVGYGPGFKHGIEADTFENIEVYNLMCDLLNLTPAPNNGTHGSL
Experiment: ENPP1 Enzymatic Inhibition Assay (2′3′-cGAMP substrate, AMP-Glo luminescence)
Format: biochemical
Conditions: 1 nM ENPP1, 20 uM 2′3′-cGAMP substrate, 30 minutes at 37° C.
Description: The inhibition of ENPP1's phosphodiesterase activity were tested in a purified enzymatic assay using 2′3′-cyclic GAMP as a substrate which allowed for the release of cleaved AMP to be monitored using a luminescent assay.
Putative inhibitors were diluted in assay buffer (50 mM Tris pH 8.0, 250 mM NaCl, 0.5 mM CaCl2, 1 uM ZnCl2, 1% DMSO) and pre-incubated for 15 minutes at 37° C. with recombinant protein containing the human ENPP1 enzymatic domain (R&D Systems cat. #6136-EN-010). The enzymatic reaction was initiated upon addition of the 2′3′-cGAMP substrate. The final reaction concentrations were 1 nM ENPP1 and 20 uM 2′3′-cGAMP substrate in a 25 uL volume. Inhibitor concentrations ranged from 10 uM to 0.2 nM. The reaction was incubated for 30 minutes at 37° C.
After reacting for 30 minutes, the amount of AMP generated from the cleavage of 2′3′-cGAMP was determined using the Promega AMP-Glo method according to the manufacturer's protocol. First, AMP-Glo reagent 1 was added and incubated with the reaction mix for 1 hour at room temperature. Second, AMP Detection solution was added and the mixture was incubated for an additional hour. The luminescence of the mixture was read on a Perkin Elmer Ensight plate reader.
The maximum and minimum levels of ENPP1 activity were established using no inhibitor and no enzyme controls, respectively. The activity observed using ENPP1 inhibitors was quantified as the percent of activity relative to these controls. IC50 values were calculated using GraphPad Prism by fitting a sigmoidal variable slope nonlinear regression model to the data.

Row | SMILES | IC50
1 | COc1ccc2c(Oc3ccc(S(N)(=O)=NCCc4ccccc4)cc3)ccnc2c1 (stereo not drawn) [Compound 19, 4-((7-methoxyquinolin-4-yl)oxy)-N′-phenethylbenzenesulfonimidamide] | 10 to 100 nM
2 | COc1ccc2c(Oc3ccc(S(N)(=O)=NC[C@@H]4CCCN4C(=O)OC(C)(C)C)cc3)ccnc2c1 (stereo partly drawn) [Compound 43, tert-butyl (2S)-2-(((amino(4-((7-methoxyquinolin-4-yl)oxy)phenyl)(oxo)-I^6-sulfaneylidene)amino)methyl) pyrrolidine-1-carboxylate] | 10 to 100 nM
3 | COc1ccc2c(Oc3ccc(S(N)(=O)=NCCN)cc3)ccnc2c1 (stereo not drawn) [Compound 40, N′-(2-aminoethyl)-4-((7-methoxyquinolin-4-yl)oxy)benzenesulfonimidamide] | 10 to 100 nM
4 | COc1ccc2c(Oc3ccc(S(=N)(=O)N4CCN(C)CC4)cc3)ccnc2c1 (stereo not drawn) [Compound 29, 7-methoxy-4-(4-(4-methylpiperazine-1-sulfonimidoyl)phenoxy)quinoline] | 10 to 100 nM
5 | COc1ccc2c(Oc3ccc(S(N)(=O)=NCCOc4cccnc4)cc3)ccnc2c1 (stereo not drawn) [Compound 13, 4-((7-methoxyquinolin-4-yl)oxy)-N′-(2-(pyridin-3-yloxy)ethyl)benzenesulfonimidamide] | < 10 nM
6 | COc1ccc2c(Oc3ccc(S(N)(=O)=NCc4cccnc4)cc3)ccnc2c1 (stereo not drawn) [Compound 27, 4-((7-methoxyquinolin-4-yl)oxy)-N′-(pyridin-3-ylmethyl)benzenesulfonimidamide] | 10 to 100 nM
7 | COc1ccc2c(Oc3ccc(S(N)(=O)=NCCNC(=O)OC(C)(C)C)cc3)ccnc2c1 (stereo not drawn) [Compound 39, tert-butyl (2-((amino(4-((7-methoxyquinolin-4-yl)oxy)phenyl)(oxo)-λ^6-sulfaneylidene)amino)ethyl) carbamate] | 10 to 100 nM
8 | COc1ccc2c(Oc3ccc(S(=N)(=O)NC[C@H](O)CO)cc3)ccnc2c1 (single isomer, unassigned) [Compound 46] | < 10 nM
9 | COc1ccc2c(Oc3ccc(S(N)(=O)=NCCOc4ccncc4)cc3)ccnc2c1 (stereo not drawn) [Compound 14, 4-((7-methoxyquinolin-4-yl)oxy)-N′-(2-(pyridin-4-yloxy)ethyl)benzenesulfonimidamide] | < 10 nM
10 | COc1ccc2c(Oc3ccc(S(N)(=O)=NC[C@H]4CCCN4C(=O)OC(C)(C)C)cc3)ccnc2c1 (stereo partly drawn) [Compound 5, tert-butyl (2R)-2-(((amino(4-((7-methoxyquinolin-4-yl)oxy)phenyl)(oxo)-I^6-sulfaneylidene)amino)methyl) pyrrolidine-1-carboxylate] | 10 to 100 nM
11 | COc1ccc2c(Oc3ccc(S(N)(=O)=NCC(F)(F)F)cc3)ccnc2c1 (stereo not drawn) [Compound 37, 4-((7-methoxyquinolin-4-yl)oxy)-N′-(2,2,2-trifluoroethyl)benzenesulfonimidamide] | < 10 nM
12 | CN=S(N)(=O)c1ccc(Nc2ncnc3cc(OC)ccc23)cc1 (stereo not drawn) [Compound 2, 4-((7-methoxyquinazolin-4-yl)amino)-N-methylbenzenesulfonimidamide] | < 10 nM
13 | COc1ccc2c(Oc3ccc(S(N)(=O)=NCC(C)O)cc3)ccnc2c1 (single isomer, unassigned) [Compound 10, N′-(2-hydroxypropyl)-4-((7-methoxyquinolin-4-yl)oxy)benzenesulfonimidamide] | < 10 nM
14 | COc1ccc2c(Oc3ccc(S(N)(=O)=NC4CC4)cc3)ccnc2c1 (stereo not drawn) [Compound 21, N′-cyclopropyl-4-((7-methoxyquinolin-4-yl)oxy)benzenesulfonimidamide] | 10 to 100 nM
15 | COc1ccc2c(Oc3ccc(S(=N)(=O)N(C)C)cc3)ccnc2c1 (stereo not drawn) [Compound 32, 4-((7-methoxyquinolin-4-yl)oxy)-N, N-dimethylbenzenesulfonimidamide] | > 100 nM
16 | COc1ccc2c(Oc3ccc(S(N)(=O)=NCc4ccc(-c5ccncc5)cc4)cc3)ccnc2c1 (stereo not drawn) [Compound 35, 4-((7-methoxyquinolin-4-yl)oxy)-N′-(4-(pyridin-4-yl)benzyl)benzenesulfonimidamide] | < 10 nM
17 | COc1ccc2c(Nc3ccc(S(=N)(=O)N(C)C)cc3)ncnc2c1 (stereo not drawn) [Compound 42, 4-((7-methoxyquinazolin-4-yl)amino)-N,N-dimethylbenzenesulfonimidamide] | 10 to 100 nM
18 | COc1ccc2c(Oc3ccc(S(=N)(=O)N4CCCC4)cc3)ccnc2c1 (stereo not drawn) [Compound 24, 7-methoxy-4-(4-(pyrrolidine-1-sulfonimidoyl)phenoxy)quinoline] | > 100 nM

Row | SMILES | IC50
19 | COc1ccc2c(Oc3ccc(S(=N)(=O)N4CCOCC4)cc3)ccnc2c1 (stereo not drawn) [Compound 18, 4-(4-((7-methoxyquinolin-4-yl)oxy)phenylsulfonimidoyl)morpholine] | > 100 nM
20 | COc1ccc2c(Oc3ccc(S(N)(=O)=NCC(C)(C)O)cc3)ccnc2c1 (stereo not drawn) [Compound 11, N′-(2-hydroxy-2-methylpropyl)-4-((7-methoxyquinolin-4-yl)oxy)benzenesulfonimidamide] | < 10 nM
21 | CCN(CC)S(=N)(=O)c1ccc(Oc2ccnc3cc(OC)ccc23)cc1 (stereo not drawn) [Compound 23, N,N-diethyl-4-((7-methoxyquinolin-4-yl)oxy)benzenesulfonimidamide] | > 100 nM
22 | COc1ccc2c(Oc3ccc(S(N)(=O)=NCc4ncco4)cc3)ccnc2c1 (stereo not drawn) [Compound 15, 4-((7-methoxyquinolin-4-yl)oxy)-N′-(oxazol-2-ylmethyl)benzenesulfonimidamide] | < 10 nM
23 | CNS(=N)(=O)c1ccc(Oc2ccnc3cc(OC)ccc23)cc1 (stereo not drawn) [Compound 31, 4-((7-methoxyquinolin-4-yl)oxy)-N′-methylbenzenesulfonimidamide] | 10 to 100 nM
24 | COc1ccc2c(Oc3ccc(S(N)(=O)=NCCNC(C)=O)cc3)ccnc2c1 (stereo not drawn) [Compound 41, N-(2-((amino(4-((7-methoxyquinolin-4-yl)oxy)phenyl)(oxo)-I^6-sulfaneylidene)amino)ethyl)acetamide] | < 10 nM
25 | CCN=S(N)(=O)c1ccc(Oc2ccnc3cc(OC)ccc23)cc1 (stereo not drawn) [Compound 22, N′-ethyl-4-((7-methoxyquinolin-4-yl)oxy)benzenesulfonimidamide] | 10 to 100 nM
26 | COc1ccc2c(Oc3ccc(S(N)(=O)=Nc4ccc(-c5ccncc5)cc4)cc3)ccnc2c1 (stereo not drawn) [Compound 38, 4-((7-methoxyquinolin-4-yl)oxy)-N′-(4-(pyridin-4-yl)phenyl)benzenesulfonimidamide] | 10 to 100 nM
27 | COc1ccc2c(Oc3ccc(S(N)(=O)=NCC4CC4)cc3)ccnc2c1 (stereo not drawn) [Compound 1, N′-(cyclopropylmethyl)-4-((7-methoxyquinolin-4-yl)oxy)benzenesulfonimidamide] | < 10 nM
28 | COc1ccc2c(Oc3ccc(S4(=O)=NC(=O)CN4)cc3)ccnc2c1 (stereo not drawn) [Compound 8, 1-(4-((7-methoxyquinolin-4-yl)oxy)phenyl)-4,5-dihydro-3H-1λ^6,2,5-thiadiazol-3-one 1-oxide] | > 100 nM
29 | COc1ccc2c(Oc3ccc(S(N)(=O)=NCc4nccn4C)cc3)ccnc2c1 (stereo not drawn) [Compound 16, 4-((7-methoxyquinolin-4-yl)oxy)-N′-((1-methyl-1H-imidazol-2-yl)methyl)benzenesulfonimidamide] | < 10 nM
30 | COc1ccc2c(Oc3ccc(S(=N)(N)=O)cc3)ccnc2c1 (stereo not drawn) [Compound 30, 4-((7-methoxyquinolin-4-yl)oxy)benzenesulfonimidamide] | 10 to 100 nM
31 | COc1ccc2c(Oc3ccc(S(N)(=O)=NCc4ccncc4)cc3)ccnc2c1 (stereo not drawn) [Compound 28, 4-((7-methoxyquinolin-4-yl)oxy)-N′-(pyridin-4-ylmethyl)benzenesulfon imidamide] | 10 to 100 nM
32 | COc1ccc2c(Oc3ccc(S(N)(=O)=NCC4CCC4)cc3)ccnc2c1 (stereo not drawn) [Compound 36, N′-(cyclobutylmethyl)-4-((7-methoxyquinolin-4-yl)oxy)benzenesulfonimidamide] | < 10 nM
33 | COc1ccc2c(Oc3ccc(S(N)(=O)=NCC(=O)O)cc3)ccnc2c1 (stereo not drawn) [Compound 7] | 10 to 100 nM
34 | CN=S(N)(=O)c1ccc(CNc2ccnc3cc(OC)ccc23)cc1 (stereo not drawn) [Compound 3, 4-(((7-methoxyquinolin-4-yl)amino)methyl)-N-methylbenzenesulfonimidamide] | > 100 nM
35 | COc1ccc2c(Oc3ccc(S(N)(=O)=NC[C@@H]4CCCN4)cc3)ccnc2c1 (stereo partly drawn) [Compound 44, 4-((7-methoxyquinolin-4-yl)oxy)-N′-(((S)-pyrrolidin-2-yl)methyl)benzenesulfonimidamide] | 10 to 100 nM
36 | COc1ccc2c(Oc3ccc(S(N)(=O)=Nc4ccccc4)cc3)ccnc2c1 (stereo not drawn) [Compound 20, 4-((7-methoxyquinolin-4-yl)oxy)-N′-phenylbenzenesulfonimidamide] | 10 to 100 nM
